Like-named read-outs stand apart in the source and are kept apart here.
Assay: Phase 1 single-dose plasma pharmacokinetics in subjects with normal hepatic function, mild or moderate hepatic impairment
Assay type: in vivo, human
Details: for half-life / Tmax / concentration at 0.5 h / concentration at 1 h / concentration at 2 h / concentration at 3 h / concentration at 4 h / concentration at 6 h / concentration at 8 h / concentration at 12 h / concentration at 16 h / concentration at 24 h / concentration at 36 h / concentration at 48 h / AUC(0-t) / AUC(0-inf) / Cmax / Vd/F: human, plasma, po, 200 mg, 200 mg single oral dose
From the text: Patients: 27 subjects were enrolled within the following groups based on their Child-Pugh (CP) classification score: • Group 1: Matched-control healthy subjects with normal hepatic function; • Group 2: Subjects with mild hepatic impairment (CP Class A, score of 5 or 6); • Group 3: Subjects with moderate hepatic impairment (CP Class B, score of 7 to 9).
A parallel design strategy was adopted for the hepatic impairment groups. Each matched-control healthy subject (Group 1) was enrolled following the enrollment of a mild and/or moderate hepatic impairment subject and was demographically matched by age (±10 years), BMI (±20%), and sex to the enrolled hepatic impairment subject(s). Subjects with normal hepatic function were not matched to more than 1 hepatically-impaired subject within an impairment group; however, subjects with normal hepatic function could be matched to 1 subject from more than 1 hepatic impairment group.
Other noncompartmental parameters could be reported.
The paired t-test was performed separately for each hepatic impairment group and the corresponding matched healthy controls. Estimates of geometric mean ratios in primary PK parameters between each level of impaired hepatic function versus the matched healthy controls were presented along with the corresponding 90% confidence intervals (CIs) for the geometric mean ratios. The p-value assessing the difference between each impairment group and the healthy control group was presented.
The PK analysis was conducted by Covance Early Clinical Biometrics using WinNonlin Version 8.1.

[1] = Moderate Hepatic Impairment, read-out: Plasma concentration, Arithmetic Mean
[2] = Moderate Hepatic Impairment, read-out: Plasma concentration, Geometric Mean
[3] = Moderate Hepatic Impairment, read-out: Plasma concentration, Median
[4] = Normal Hepatic Function, read-out: Plasma concentration, Arithmetic Mean
[5] = Normal Hepatic Function, read-out: Plasma concentration, Geometric Mean
[6] = Normal Hepatic Function, read-out: Plasma concentration, Median

N#CC1(c2ccc(NC(=O)c3cccnc3NCc3ccncc3)cc2)CCCC1 [Rivoceranib, N-[4-(1-cyanocyclopentyl)phenyl]-2-{[(pyridin-4-yl)methyl]amino} pyridine-3-carboxamide]
half-life (Moderate Hepatic Impairment, read-out: t1/2, Geometric Mean (converted)): 18.4 h | half-life (Moderate Hepatic Impairment, read-out: t1/2, Median (converted)): 18.2 h | Tmax (Moderate Hepatic Impairment, read-out: tmax, Arithmetic Mean): 2 h | Tmax (Moderate Hepatic Impairment, read-out: tmax, Geometric Mean): 1.8 h | Tmax (Moderate Hepatic Impairment, read-out: tmax, Median): 2 h | concentration at 0.5 h [1]: 115 ng/mL | concentration at 0.5 h [2]: 57.1 ng/mL | concentration at 0.5 h [3]: 92.2 ng/mL | concentration at 1 h [1]: 195 ng/mL | concentration at 1 h [2]: 140 ng/mL | concentration at 1 h [3]: 154 ng/mL | concentration at 2 h [1]: 190 ng/mL | concentration at 2 h [2]: 178 ng/mL | concentration at 2 h [3]: 170 ng/mL | concentration at 3 h [1]: 166 ng/mL | concentration at 3 h [2]: 154 ng/mL | concentration at 3 h [3]: 162 ng/mL | concentration at 4 h [1]: 134 ng/mL | concentration at 4 h [2]: 121 ng/mL | concentration at 4 h [3]: 132 ng/mL | concentration at 6 h [1]: 106 ng/mL | concentration at 6 h [2]: 96.8 ng/mL | concentration at 6 h [3]: 93.8 ng/mL | concentration at 8 h [1]: 85.5 ng/mL | concentration at 8 h [2]: 80.3 ng/mL | concentration at 8 h [3]: 85 ng/mL | concentration at 12 h [1]: 62.3 ng/mL | concentration at 12 h [2]: 58.2 ng/mL | concentration at 12 h [3]: 54.2 ng/mL | concentration at 16 h [1]: 52.6 ng/mL | concentration at 16 h [2]: 45.3 ng/mL | concentration at 16 h [3]: 43.4 ng/mL | concentration at 24 h [1]: 44.3 ng/mL | concentration at 24 h [2]: 38.7 ng/mL | concentration at 24 h [3]: 36.5 ng/mL | concentration at 36 h [1]: 24 ng/mL | concentration at 36 h [2]: 20.9 ng/mL | concentration at 36 h [3]: 24.9 ng/mL | concentration at 48 h [1]: 17.4 ng/mL | concentration at 48 h [2]: 18.1 ng/mL | concentration at 48 h [3]: 15.5 ng/mL | AUC(0-t) (Normal Hepatic Function, read-out: AUC0-t, Arithmetic Mean): 2690 ng·h/mL | AUC(0-t) (Normal Hepatic Function, read-out: AUC0-t, Geometric Mean): 2560 ng·h/mL | AUC(0-t) (Normal Hepatic Function, read-out: AUC0-t, Median): 2780 ng·h/mL | AUC(0-inf) (Normal Hepatic Function, read-out: AUC0-∞, Arithmetic Mean): 3180 ng·h/mL | AUC(0-inf) (Normal Hepatic Function, read-out: AUC0-∞, Geometric Mean): 3050 ng·h/mL | AUC(0-inf) (Normal Hepatic Function, read-out: AUC0-∞, Median): 2880 ng·h/mL | Cmax (Normal Hepatic Function, read-out: Cmax, Arithmetic Mean): 271 ng/mL | Cmax (Normal Hepatic Function, read-out: Cmax, Geometric Mean): 250 ng/mL | Cmax (Normal Hepatic Function, read-out: Cmax, Median): 270 ng/mL | Vd/F (Normal Hepatic Function, read-out: VZ/F, Arithmetic Mean): 1340 L | Vd/F (Normal Hepatic Function, read-out: VZ/F, Geometric Mean): 1310 L | Vd/F (Normal Hepatic Function, read-out: VZ/F, Median): 1190 L | half-life (Normal Hepatic Function, read-out: t1/2, Arithmetic Mean (converted)): 17.9 ± 8.6 h | half-life (Normal Hepatic Function, read-out: t1/2, Geometric Mean (converted)): 16.3 h | half-life (Normal Hepatic Function, read-out: t1/2, Median (converted)): 16.9 h | Tmax (Normal Hepatic Function, read-out: tmax, Arithmetic Mean): 2.5 h | Tmax (Normal Hepatic Function, read-out: tmax, Geometric Mean): 2.2 h | Tmax (Normal Hepatic Function, read-out: tmax, Median): 2 h | concentration at 0.5 h [4]: 17.7 ng/mL | concentration at 0.5 h [5]: 15.2 ng/mL | concentration at 0.5 h [6]: 6.8 ng/mL | concentration at 1 h [4]: 136 ng/mL | concentration at 1 h [5]: 92.9 ng/mL | concentration at 1 h [6]: 74.4 ng/mL | concentration at 2 h [4]: 226 ng/mL | concentration at 2 h [5]: 204 ng/mL | concentration at 2 h [6]: 236 ng/mL | concentration at 3 h [4]: 216 ng/mL | concentration at 3 h [5]: 192 ng/mL | concentration at 3 h [6]: 199 ng/mL | concentration at 4 h [4]: 164 ng/mL | concentration at 4 h [5]: 149 ng/mL | concentration at 4 h [6]: 147 ng/mL | concentration at 6 h [4]: 131 ng/mL | concentration at 6 h [5]: 117 ng/mL | concentration at 6 h [6]: 106 ng/mL | concentration at 8 h [4]: 99.4 ng/mL | concentration at 8 h [5]: 89.5 ng/mL | concentration at 8 h [6]: 81 ng/mL | concentration at 12 h [4]: 67.8 ng/mL | concentration at 12 h [5]: 63.2 ng/mL | concentration at 12 h [6]: 61.9 ng/mL | concentration at 16 h [4]: 48.8 ng/mL | concentration at 16 h [5]: 45.7 ng/mL | concentration at 16 h [6]: 49.7 ng/mL | concentration at 24 h [4]: 43.2 ng/mL | concentration at 24 h [5]: 40.4 ng/mL | concentration at 24 h [6]: 43 ng/mL | concentration at 36 h [4]: 23.9 ng/mL | concentration at 36 h [5]: 21.3 ng/mL | concentration at 36 h [6]: 24.2 ng/mL | concentration at 48 h [4]: 14.9 ng/mL | concentration at 48 h [5]: 14.8 ng/mL | concentration at 48 h [6]: 15.9 ng/mL | exposure in mild or moderate hepatic impairment compared to normal hepatic function (same amount of rivoceranib): do not have a statistically significant difference in exposure
